# Where a name gives a salt, the structure may show the parent alone. Read-outs that look alike come from different tables or passages of the source.
# Legend:
# [1] = target: T1, human recombinant bradykinin B1 receptor (Homo sapiens, UniProt P46663); test: Human recombinant bradykinin B1 receptor binding
# T1 construct: host or cells: CHO cells
# T1 sequence (P46663 1-353): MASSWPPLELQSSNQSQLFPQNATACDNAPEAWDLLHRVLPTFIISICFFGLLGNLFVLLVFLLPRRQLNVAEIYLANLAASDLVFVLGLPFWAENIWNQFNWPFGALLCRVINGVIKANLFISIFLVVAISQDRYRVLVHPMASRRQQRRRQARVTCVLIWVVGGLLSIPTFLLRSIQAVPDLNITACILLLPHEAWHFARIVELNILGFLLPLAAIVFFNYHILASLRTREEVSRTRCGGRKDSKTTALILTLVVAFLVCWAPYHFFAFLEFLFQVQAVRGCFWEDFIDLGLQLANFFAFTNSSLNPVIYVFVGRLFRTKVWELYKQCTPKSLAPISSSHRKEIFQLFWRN
# Protocol: 1. Human Recombinant Bradykinin B1 Receptor Binding
# Binding assays were carried out on human recombinant bradykinin) receptors (expressed in CHO cells) according to the Euroscreen Technical Data Sheet (Cat.No.:ES-091). 20 μg protein/tube was incubated with [3,4-prolyl-3,4-^3H(N)]-[Des-Arg^10] Kallidin as radioligand. Non specific binding was determined in the presence of 10 μM Lys-des-Arg^9-Bradykinin. The final incubation volume was 250 μl. Samples were incubated for 15 min. at 25° C. then were rapidly vacuum filtered through GF/B filters presoaked for at least 1 h in 0.5% PEI. Radioactivity was determined by liquid scintillation spectroscopy.
# [2] = target: T2, recombinant human B1 receptors (Homo sapiens, UniProt P46663); test: Functional assay: antagonist potency by cytosolic calcium measurement (fluo-4, plate reader fluorimeter) in CHO-B1 cells; type: cell-based
# T2 construct: host or cells: CHO (CHO-B1)
# T2 sequence (P46663 1-353): T1 sequence (P46663 1-353)
# Protocol: Assessment of Antagonist Potency at B1 and B2 Receptors In Vitro by Measurement of Cytosolic Calcium Ion Concentration with a Plate Reader Fluorimeter in Cells Expressing Recombinant Human B1 or B2 Receptors
# Chinese hamster ovary (CHO) cells stably expressing recombinant human B1 (CHO-B1, Euroscreen) or B2 (CHO-B2, Perkin-Elmer) receptors were cultured in Dulbecco's Modified Eagle's Medium (DMEM) containing 10% Fetal Calf Serum (FCS), 100 U/ml penicillin, 0.1 mg/ml streptomycin, 0.25 μg/ml amphotericin B, 1% Minimum Essential Medium Eagle (MEM), non essential amino acid solution, […], 1% pyruvate (for the B2 cell line). Cells were kept at 37° C. in a humidified incubator in an atmosphere of 5% CO2/95% air and were passaged 1:4 three times a week. Cells were plated at 1.5-2.5×10^4 cell/well on standard 96-well microplates, measurements of cytosolic calcium ion concentration ([Ca^2+]i) were carried out 1-2 days after cell plating.
# Measurements of [Ca^2+]i were carried out on CHO-B1 and CHO-B2 cells stably expressing human B1 and B2 receptors, respectively. Cells were grown in standard 96-well microplates and before the measurement were loaded with a fluorescent Ca^2+-sensitive dye, fluo-4/AM (2 μM): after removing the culture medium the dye was added to the cells (dissolved in assay buffer: 145 mM NaCl, 5 mM KCl, 2 mM MgCl2, 2 mM CaCl2, 10 mM HEPES, 20 mM D-glucose, 2 mM probenecid, 100 μl/well) and cells were incubated at 37° C. in a humidified incubator in an atmosphere of 5% CO2/95% air for 40-120 min. To stop dye loading cells were washed twice with assay buffer. After washing, various concentrations of the test compounds (diluted in extracellular medium from a DMSO stock solution, final DMSO concentration was <0.1%) or buffer were added to each well depending on the experimental setup. After incubation at 37° C. for 20-25 min. baseline and agonist-evoked changes of [Ca^2+]i were measured column by column with a plate reader fluorimeter (Fluoroskan Ascent, Labsystems). Excitation and detection of emission was carried out from the bottom of the plate. Filters used for Fluo-4: excitation filter—485 nm, emission filter—538 nm. The whole measurement process was performed at 37° C. and was controlled by custom software Inhibitory potency of the test compounds was assessed by measuring the reduction in the agonist-evoked [Ca^2+]i-elevation in the presence of different concentrations of the compounds. The agonists were LysDABK for CHO-B1, and bradykinin for CHO-B2 cells. Agonists were applied at an EC80 concentration, the EC80-values were derived from daily determined dose-response curves. Fluorescence data were expressed as ΔF/F (fluorescence change normalized to baseline). All treatments on a single plate were measured in multiple wells. Data from all wells with the same treatment were averaged and the average values were used for analysis. Inhibitory potency of a compound at a single concentration point was expressed as percent inhibition of the control agonist response. Sigmoidal concentration-inhibition curves were fitted to the data (derived from at least three independent experiments) and IC50-values were determined as the concentration that produces half of the maximal inhibition caused by the compound.
# [3] = CHO cell membranes, [3H]-[Des-Arg10] Kallidin radioligand, read-out: B1 binding
# [4] = CHO-B1 cells, inhibition of LysDABK (EC80)-evoked [Ca2+]i elevation, read-out: B1 func.
SMILES,"Ki [1, 3] [nM]","IC50 [2, 4] [nM]","Ki ([1]; reference compounds, binding test, read-out: Ki) [nM]","IC50 ([2]; reference compounds, functional test, read-out: IC50) [nM]"
"CN(C)CCCNC(=O)CNC(=O)c1ccc(S(=O)(=O)Nc2ccccc2Oc2ccccc2)cc1 [Example 54, N-[(3-Dimethylamino-propylcarbamoyl)-methyl]-4-(2-phenoxy-phenylsulfamoyl)-benzamide]",< 20,< 20,–,–
"CC1CCCCN1CCCNC(=O)CNC(=O)c1ccc(S(=O)(=O)Nc2ccccc2Oc2ccccc2)cc1 (stereo not drawn) [Example 56, N-{[3-(2-Methyl-piperidin-1-yl)-propylcarbamoyl]-methyl}-4-(2-phenoxy-phenylsulfamoyl)-benzamide]",< 20,< 20,–,–
"O=C(CNC(=O)c1ccc(S(=O)(=O)Nc2ccccc2Oc2ccccc2)cc1)NC1CCNCC1 [Example 66, 4-(2-Phenoxy-phenylsulfamoyl)-N-(piperidin-4-ylcarbamoylmethyl)-benzamide hydrochloride]",< 20,< 20,–,–
"CCCN1C(=O)[C@H](NC(=O)Nc2ccc(N3CCC(N4CCCCC4)CC3)cc2)N=C(c2ccc(C)cc2)c2ccccc21 [N-[4-(,4′-bipiperidin)-1′-ylphenyl]-N′-[(3R)-2,3-dihydro-5-(4-methyl-phenyl)-2-oxo-1-propyl-1H-1,4-benzodiazepin-3-yl]-urea, reference compound]",–,–,13.4,64.5

# The next lines start with results.
"Ki [1, 3] [nM]","IC50 [2, 4] [nM]",SMILES,"Ki ([1]; reference compounds, binding test, read-out: Ki) [nM]","IC50 ([2]; reference compounds, functional test, read-out: IC50) [nM]"
< 20,< 20,"O=C(CNC(=O)c1ccc(S(=O)(=O)Nc2ccccc2Oc2ccccc2)cc1)N[C@H]1CC[C@H](CCN2CCCC2)CC1 [Example 50, trans-4-(2-Phenoxy-phenylsulfamoyl)-N-{[4-(2-pyrrolidin-1-yl-ethyl)-cyclohexyl-carbamoyl]-methyl}-benzamide]",–,–
< 20,< 20,"O=C(CNC(=O)c1ccc(S(=O)(=O)Nc2ccccc2Oc2ccc(Cl)cc2Cl)cc1)NC1CCNCC1 [Example 60, 4-[2-(2,4-Dichloro-phenoxy)-phenylsulfamoyl]-N-(piperidin-4-ylcarbamoylmethyl)-benzamide hydrochloride]",–,–
< 20,< 20,"O=C(CNC(=O)c1ccc(S(=O)(=O)Nc2ccccc2Oc2ccc(Cl)cc2Cl)cc1)NCCCC1CCNCC1 [Example 61, 4-[2-(2,4-Dichloro-phenoxy)-phenylsulfamoyl]-N-[(3-piperidin-4-yl-propylcarbamoyl)-methyl]-benzamide hydrochloride]",–,–
< 20,< 20,"O=C(CNC(=O)c1ccc(S(=O)(=O)Nc2ccccc2Oc2ccc(Cl)cc2Cl)cc1)NC1CCC(N2CCCCC2)CC1 (stereo not drawn) [Example 62, 4-[2-(2,4-Dichloro-phenoxy)-phenylsulfamoyl]-N-[(4-piperidin-1-yl-cyclohexyl-carbamoyl)-methyl]-benzamide]",–,–
< 20,< 20,"O=C(CNC(=O)c1ccc(S(=O)(=O)Nc2ccccc2Oc2ccc(Cl)cc2Cl)cc1)NCCCCN1CCCCC1 [Example 63, 4-[2-(2,4-Dichloro-phenoxy)-phenylsulfamoyl]-N-[(4-piperidin-1-yl-butylcarbamoyl)-methyl]-benzamide]",–,–
